Results published in paper PMC9851200, “Multiparameter phenotypic screening for endogenous TFEB and TFE3 translocation identifies novel chemical series modulating lysosome function” (Autophagy, 2022).

How the values were obtained:
Format in all cases: binding
[1] = target: kinases (KINOMEscan panel) (Homo sapiens, UniProt P07332); settings: kinase FES; NEW KINOMEscan
[2] = target: kinases (KINOMEscan panel) (Homo sapiens, UniProt P07949); settings: kinase RET; NEW KINOMEscan
[3] = target: kinases (KINOMEscan panel) (Homo sapiens, UniProt P08069); settings: kinase IGF1R; NEW KINOMEscan
[4] = target: kinases (KINOMEscan panel) (Homo sapiens, UniProt P12931); settings: SRC; NEW KINOMEscan
[5] = target: T1, kinases (KINOMEscan panel) (Homo sapiens, UniProt P21709); settings: EPHA1; NEW KINOMEscan
T1 sequence (P21709 26-976): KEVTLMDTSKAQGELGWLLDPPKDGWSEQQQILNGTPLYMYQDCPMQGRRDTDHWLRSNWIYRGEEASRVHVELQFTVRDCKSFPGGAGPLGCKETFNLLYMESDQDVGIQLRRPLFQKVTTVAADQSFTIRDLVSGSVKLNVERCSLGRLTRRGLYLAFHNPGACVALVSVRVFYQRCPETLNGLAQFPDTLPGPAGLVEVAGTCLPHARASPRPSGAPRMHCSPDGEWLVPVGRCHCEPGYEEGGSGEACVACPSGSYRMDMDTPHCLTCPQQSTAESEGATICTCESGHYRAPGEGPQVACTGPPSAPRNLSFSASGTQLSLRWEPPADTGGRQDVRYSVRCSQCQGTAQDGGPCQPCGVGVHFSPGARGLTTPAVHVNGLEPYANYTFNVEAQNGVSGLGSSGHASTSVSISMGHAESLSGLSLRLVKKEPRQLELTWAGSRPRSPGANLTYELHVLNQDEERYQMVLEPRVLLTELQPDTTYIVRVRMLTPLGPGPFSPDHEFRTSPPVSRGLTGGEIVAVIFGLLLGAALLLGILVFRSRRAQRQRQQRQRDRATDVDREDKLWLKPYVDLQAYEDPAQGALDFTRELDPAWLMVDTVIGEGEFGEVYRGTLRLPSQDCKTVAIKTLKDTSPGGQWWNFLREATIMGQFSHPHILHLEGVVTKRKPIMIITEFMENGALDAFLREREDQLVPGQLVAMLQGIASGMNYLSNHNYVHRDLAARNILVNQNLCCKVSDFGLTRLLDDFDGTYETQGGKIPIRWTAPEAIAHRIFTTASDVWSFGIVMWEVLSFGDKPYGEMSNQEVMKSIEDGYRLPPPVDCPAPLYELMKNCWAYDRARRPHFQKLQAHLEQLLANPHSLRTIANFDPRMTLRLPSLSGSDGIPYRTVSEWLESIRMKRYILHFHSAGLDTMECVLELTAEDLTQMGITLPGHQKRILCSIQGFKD

[6] = target: kinases (KINOMEscan panel) (Homo sapiens, UniProt P36894); settings: kinase BMPR1A; NEW KINOMEscan
[7] = target: kinases (KINOMEscan panel) (Homo sapiens, UniProt P42336, M1043I); settings: NEW KINOMEscan
[8] = target: T2, kinases (KINOMEscan panel) (Homo sapiens, UniProt Q13873); settings: kinase BMPR2; NEW KINOMEscan
T2 sequence (Q13873 27-1038): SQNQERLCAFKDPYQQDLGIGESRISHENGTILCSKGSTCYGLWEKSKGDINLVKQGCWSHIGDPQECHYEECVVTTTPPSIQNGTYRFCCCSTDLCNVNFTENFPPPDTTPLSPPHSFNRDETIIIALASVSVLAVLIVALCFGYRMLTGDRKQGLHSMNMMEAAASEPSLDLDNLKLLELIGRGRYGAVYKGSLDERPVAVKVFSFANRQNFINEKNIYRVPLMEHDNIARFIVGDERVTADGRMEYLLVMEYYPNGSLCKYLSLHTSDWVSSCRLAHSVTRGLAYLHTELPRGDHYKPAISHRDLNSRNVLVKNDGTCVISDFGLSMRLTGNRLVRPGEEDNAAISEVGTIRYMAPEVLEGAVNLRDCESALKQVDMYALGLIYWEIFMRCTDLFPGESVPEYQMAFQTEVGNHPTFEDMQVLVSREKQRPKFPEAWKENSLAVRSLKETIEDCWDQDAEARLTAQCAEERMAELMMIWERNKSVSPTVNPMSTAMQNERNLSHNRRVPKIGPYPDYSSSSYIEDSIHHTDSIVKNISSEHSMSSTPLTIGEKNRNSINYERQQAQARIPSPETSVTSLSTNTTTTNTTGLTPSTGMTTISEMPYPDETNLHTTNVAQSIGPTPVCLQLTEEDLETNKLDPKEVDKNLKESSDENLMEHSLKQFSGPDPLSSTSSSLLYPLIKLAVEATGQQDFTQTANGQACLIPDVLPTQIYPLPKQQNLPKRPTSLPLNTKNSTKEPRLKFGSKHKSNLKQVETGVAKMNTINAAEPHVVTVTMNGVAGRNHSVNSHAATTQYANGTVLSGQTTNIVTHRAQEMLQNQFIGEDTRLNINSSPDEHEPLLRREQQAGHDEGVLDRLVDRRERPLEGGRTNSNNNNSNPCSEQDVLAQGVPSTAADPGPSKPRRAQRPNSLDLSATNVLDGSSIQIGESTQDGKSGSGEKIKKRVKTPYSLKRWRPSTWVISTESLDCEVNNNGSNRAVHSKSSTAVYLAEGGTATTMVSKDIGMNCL

[9] = target: kinases (KINOMEscan panel) (Homo sapiens, UniProt Q7KZI7); settings: MARK2; NEW KINOMEscan
[10] = target: T3, kinases (KINOMEscan panel) (Homo sapiens, UniProt Q96PN8); settings: kinase TSSK3; NEW KINOMEscan
T3 sequence (Q96PN8 1-268): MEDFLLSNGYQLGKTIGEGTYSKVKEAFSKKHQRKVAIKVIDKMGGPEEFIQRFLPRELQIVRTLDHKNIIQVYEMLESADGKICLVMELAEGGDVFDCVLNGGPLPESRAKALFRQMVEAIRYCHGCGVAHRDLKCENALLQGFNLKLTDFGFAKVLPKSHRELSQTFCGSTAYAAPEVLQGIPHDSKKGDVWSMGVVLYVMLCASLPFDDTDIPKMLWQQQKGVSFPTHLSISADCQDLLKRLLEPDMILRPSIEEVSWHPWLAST

[11] = target: kinases (KINOMEscan panel) (Homo sapiens, UniProt Q9P2K8, S808G)
Sequence of kinases (KINOMEscan panel) (Homo sapiens, UniProt Q9P2K8, S808G) (Q9P2K8 whole entry S808G): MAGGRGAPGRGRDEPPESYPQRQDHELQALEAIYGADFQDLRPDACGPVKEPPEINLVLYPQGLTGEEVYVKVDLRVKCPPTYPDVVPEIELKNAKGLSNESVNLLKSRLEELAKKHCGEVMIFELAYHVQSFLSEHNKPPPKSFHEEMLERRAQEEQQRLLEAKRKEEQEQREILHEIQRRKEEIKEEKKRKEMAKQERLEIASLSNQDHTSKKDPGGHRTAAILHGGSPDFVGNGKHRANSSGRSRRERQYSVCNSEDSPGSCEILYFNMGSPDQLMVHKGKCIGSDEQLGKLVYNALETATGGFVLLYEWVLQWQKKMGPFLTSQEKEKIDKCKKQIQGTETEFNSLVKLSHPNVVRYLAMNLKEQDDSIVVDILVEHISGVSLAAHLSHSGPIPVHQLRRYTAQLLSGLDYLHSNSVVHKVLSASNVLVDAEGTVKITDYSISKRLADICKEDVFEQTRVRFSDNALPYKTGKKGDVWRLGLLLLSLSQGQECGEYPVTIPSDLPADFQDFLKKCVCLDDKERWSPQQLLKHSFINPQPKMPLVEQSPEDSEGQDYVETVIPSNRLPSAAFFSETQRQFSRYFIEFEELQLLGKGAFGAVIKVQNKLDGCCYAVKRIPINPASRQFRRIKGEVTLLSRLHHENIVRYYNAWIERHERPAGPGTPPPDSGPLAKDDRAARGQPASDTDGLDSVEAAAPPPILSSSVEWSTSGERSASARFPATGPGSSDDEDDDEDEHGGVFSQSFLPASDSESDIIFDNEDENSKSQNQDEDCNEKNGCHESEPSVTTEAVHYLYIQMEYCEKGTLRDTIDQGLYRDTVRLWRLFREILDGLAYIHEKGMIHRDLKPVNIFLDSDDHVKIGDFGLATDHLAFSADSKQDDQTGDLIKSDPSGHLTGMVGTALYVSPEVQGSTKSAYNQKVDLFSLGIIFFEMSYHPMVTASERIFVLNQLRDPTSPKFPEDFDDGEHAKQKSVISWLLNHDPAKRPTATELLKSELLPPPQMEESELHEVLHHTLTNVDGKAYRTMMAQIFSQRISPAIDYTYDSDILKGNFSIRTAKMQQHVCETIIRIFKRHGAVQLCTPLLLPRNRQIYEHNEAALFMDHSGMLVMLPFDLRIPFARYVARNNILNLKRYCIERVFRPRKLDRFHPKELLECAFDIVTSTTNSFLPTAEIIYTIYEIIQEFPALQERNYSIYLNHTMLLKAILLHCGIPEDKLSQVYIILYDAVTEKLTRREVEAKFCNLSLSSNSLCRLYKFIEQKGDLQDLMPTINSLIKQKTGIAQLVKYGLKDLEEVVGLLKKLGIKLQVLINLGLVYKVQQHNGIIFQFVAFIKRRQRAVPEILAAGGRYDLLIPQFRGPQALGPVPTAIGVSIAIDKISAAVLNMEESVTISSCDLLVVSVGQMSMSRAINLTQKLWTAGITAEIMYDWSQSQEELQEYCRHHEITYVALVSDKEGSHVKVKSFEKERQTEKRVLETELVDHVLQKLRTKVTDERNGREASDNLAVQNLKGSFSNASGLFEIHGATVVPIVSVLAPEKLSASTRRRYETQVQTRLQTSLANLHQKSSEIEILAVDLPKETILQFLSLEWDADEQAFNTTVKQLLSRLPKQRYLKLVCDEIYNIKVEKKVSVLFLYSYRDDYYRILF

Sequence of kinases (KINOMEscan panel) (Homo sapiens, UniProt P36894) (P36894 24-532): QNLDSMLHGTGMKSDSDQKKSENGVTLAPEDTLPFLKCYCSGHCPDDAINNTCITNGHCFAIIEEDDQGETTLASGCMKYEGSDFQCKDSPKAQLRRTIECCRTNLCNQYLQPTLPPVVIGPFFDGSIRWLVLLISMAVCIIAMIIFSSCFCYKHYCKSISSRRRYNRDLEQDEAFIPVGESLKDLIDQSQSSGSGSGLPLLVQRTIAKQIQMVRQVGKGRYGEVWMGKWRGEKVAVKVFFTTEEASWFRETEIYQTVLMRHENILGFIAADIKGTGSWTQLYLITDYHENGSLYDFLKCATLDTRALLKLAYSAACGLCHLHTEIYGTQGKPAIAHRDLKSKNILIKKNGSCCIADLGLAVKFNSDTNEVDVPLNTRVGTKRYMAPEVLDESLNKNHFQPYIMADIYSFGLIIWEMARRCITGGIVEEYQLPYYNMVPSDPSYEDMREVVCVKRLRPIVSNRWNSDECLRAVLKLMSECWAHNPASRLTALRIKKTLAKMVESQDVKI
Sequence of kinases (KINOMEscan panel) (Homo sapiens, UniProt P07949) (P07949 29-1114): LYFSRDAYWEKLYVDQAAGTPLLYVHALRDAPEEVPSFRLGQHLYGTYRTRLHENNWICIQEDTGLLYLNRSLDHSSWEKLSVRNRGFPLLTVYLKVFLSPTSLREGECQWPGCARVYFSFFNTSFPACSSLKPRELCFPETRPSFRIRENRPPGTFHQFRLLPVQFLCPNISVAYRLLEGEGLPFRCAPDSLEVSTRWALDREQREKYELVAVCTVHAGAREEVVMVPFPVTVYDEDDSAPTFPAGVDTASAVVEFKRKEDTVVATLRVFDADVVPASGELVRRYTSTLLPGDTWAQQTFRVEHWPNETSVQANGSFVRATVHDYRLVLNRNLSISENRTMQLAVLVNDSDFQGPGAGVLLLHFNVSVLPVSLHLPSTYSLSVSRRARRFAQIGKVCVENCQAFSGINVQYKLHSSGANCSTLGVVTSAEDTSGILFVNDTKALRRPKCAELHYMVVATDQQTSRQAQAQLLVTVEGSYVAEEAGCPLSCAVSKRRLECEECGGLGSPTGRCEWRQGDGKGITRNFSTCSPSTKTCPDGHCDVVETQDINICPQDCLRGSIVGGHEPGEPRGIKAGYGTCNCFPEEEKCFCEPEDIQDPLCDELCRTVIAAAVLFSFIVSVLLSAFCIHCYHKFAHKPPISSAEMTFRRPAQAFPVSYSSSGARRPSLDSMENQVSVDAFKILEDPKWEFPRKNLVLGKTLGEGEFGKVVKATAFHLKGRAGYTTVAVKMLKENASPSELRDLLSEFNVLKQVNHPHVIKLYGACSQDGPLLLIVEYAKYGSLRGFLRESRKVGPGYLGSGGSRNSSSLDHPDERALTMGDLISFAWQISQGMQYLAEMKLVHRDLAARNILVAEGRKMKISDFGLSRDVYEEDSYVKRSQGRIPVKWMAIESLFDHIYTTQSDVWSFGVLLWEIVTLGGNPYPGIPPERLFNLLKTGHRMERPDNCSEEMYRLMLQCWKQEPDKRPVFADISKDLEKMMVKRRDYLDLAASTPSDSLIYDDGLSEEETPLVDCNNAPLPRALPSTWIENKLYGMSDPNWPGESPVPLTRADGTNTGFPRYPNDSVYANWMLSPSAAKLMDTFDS
Sequence of kinases (KINOMEscan panel) (Homo sapiens, UniProt P08069) (P08069 31-1367): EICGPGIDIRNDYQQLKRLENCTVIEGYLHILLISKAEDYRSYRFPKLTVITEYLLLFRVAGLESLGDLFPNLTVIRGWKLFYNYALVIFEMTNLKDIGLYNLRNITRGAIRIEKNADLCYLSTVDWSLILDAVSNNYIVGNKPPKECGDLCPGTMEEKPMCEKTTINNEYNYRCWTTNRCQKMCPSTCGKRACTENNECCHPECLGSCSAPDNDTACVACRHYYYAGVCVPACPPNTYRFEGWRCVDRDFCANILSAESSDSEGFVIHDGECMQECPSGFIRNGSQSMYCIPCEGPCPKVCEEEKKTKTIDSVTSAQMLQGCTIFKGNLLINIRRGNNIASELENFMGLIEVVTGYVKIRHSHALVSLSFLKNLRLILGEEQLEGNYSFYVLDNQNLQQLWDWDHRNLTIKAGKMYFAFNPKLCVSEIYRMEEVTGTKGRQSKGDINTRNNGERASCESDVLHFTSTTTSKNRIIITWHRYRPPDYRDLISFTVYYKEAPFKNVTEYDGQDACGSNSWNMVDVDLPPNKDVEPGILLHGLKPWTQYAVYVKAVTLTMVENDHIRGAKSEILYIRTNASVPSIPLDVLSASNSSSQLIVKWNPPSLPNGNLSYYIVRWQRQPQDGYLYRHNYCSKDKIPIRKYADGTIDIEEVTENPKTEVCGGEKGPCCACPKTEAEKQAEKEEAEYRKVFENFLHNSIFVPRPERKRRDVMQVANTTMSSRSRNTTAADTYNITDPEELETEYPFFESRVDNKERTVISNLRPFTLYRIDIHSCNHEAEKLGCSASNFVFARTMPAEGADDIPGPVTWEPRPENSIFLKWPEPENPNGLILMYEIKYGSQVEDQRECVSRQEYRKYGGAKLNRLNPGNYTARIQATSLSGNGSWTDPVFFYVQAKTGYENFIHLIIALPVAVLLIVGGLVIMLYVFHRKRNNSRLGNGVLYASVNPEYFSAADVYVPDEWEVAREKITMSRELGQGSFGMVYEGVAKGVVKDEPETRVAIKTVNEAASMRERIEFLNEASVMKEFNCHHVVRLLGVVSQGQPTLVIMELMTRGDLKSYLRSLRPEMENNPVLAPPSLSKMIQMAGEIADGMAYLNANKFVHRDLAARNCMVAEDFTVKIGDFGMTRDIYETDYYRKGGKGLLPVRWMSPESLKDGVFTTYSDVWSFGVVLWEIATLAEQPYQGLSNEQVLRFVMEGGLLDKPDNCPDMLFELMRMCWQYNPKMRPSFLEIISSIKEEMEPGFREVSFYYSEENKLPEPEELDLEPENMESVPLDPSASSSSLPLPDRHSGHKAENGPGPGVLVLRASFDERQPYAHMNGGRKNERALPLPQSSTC
Sequence of kinases (KINOMEscan panel) (Homo sapiens, UniProt P12931) (P12931 whole entry): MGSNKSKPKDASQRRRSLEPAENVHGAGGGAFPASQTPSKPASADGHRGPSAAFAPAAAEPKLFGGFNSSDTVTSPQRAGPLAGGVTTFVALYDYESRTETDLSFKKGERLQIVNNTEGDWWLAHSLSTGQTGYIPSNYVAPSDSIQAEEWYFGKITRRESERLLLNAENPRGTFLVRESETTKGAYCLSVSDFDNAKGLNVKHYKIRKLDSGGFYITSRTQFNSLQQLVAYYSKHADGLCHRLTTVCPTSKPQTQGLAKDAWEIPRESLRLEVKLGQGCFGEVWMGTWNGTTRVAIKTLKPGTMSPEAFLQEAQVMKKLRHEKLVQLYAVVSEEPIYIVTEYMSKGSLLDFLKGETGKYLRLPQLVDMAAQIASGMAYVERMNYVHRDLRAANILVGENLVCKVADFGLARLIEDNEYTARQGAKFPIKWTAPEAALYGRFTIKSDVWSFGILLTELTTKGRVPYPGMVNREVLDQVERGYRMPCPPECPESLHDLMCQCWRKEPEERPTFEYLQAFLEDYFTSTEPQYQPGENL

SMILES: Cc1cccc(-c2nc(Nc3ccc4nn(C)cc4c3)c3ccccc3n2)n1 [NK167]
- KINOMEscan FES [1]: 0
- KINOMEscan RET [2]: 0
- KINOMEscan IGF1R [3]: 0
- KINOMEscan SRC [4]: 13
- KINOMEscan EPHA1 [5]: 1
- KINOMEscan BMPR1A [6]: 13
- KINOMEscan PIK3CA(M1043I) [7]: 17
- KINOMEscan BMPR2 [8]: 0
- KINOMEscan MARK2 [9]: 0
- KINOMEscan TSSK3 [10]: 0
- KINOMEscan EIF2AK4/GCN2(Kin.Dom.2,S808G) [11]: 38

SMILES: Cc1cccc(-c2nc(N(C)c3ccc4ncsc4c3)c3ccccc3n2)n1 [NK-161]
- KINOMEscan FES [1]: 4
- KINOMEscan RET [2]: 0
- KINOMEscan IGF1R [3]: 14
- KINOMEscan SRC [4]: 18
- KINOMEscan EPHA1 [5]: 0
- KINOMEscan BMPR1A [6]: 4
- KINOMEscan PIK3CA(M1043I) [7]: 10
- KINOMEscan BMPR2 [8]: 18
- KINOMEscan MARK2 [9]: 0
- KINOMEscan TSSK3 [10]: 6
- KINOMEscan EIF2AK4/GCN2(Kin.Dom.2,S808G) [11]: 53
